# Patent US20230318003A1, “REDOX FLOW BATTERY AND AQUEOUS-BASED SOLUTION” (RIVUS AB, priority 2020, published 2023)
# Assays:
# [1] = Cyclic voltammetry of the compounds of Examples 3, 4a and 4b; format: physicochemical; conditions: for Redox potential E^0′ vs. Ag/AgCl: single redox process; for Decomposition during cyclic voltammetry: both acidic and neutral electrolytes; for Redox potential vs. Ag/AgCl, first redox process / Redox potential vs. Ag/AgCl, second redox process: neutral electrolyte
# Experimental: All CV measurements were carried out in a custom built 10 ml three-electrode electrochemical cell. The lower part of the cell holds the electrolyte of interest. In the upper part are ports to hold the working electrode, reference electrode and auxiliary electrode as well as inlet and outlet for N2 gas. […] Cyclic voltammograms were recorded at scan rates of 10 mVs^−1, 20 mVs^−1, 50 mVs^−1, 100 mVs^−1 and 250 mVs^−1 at room temperature. Prior to measurements, the electrolyte was de-aerated by continuously purging with N2 gas for 10-15 minutes and maintaining a N2 flow-blanket throughout the experiment to minimize any environmental contamination. Also, 80% of the ohmic drop was compensated for during the experiment using a positive feedback-loop.
# [2] = Solubility testing, saturated solutions in milli-Q water at ambient temperature; conditions: thermodynamic from solid
# Experimental: The solutions were centrifuged at 12,500 rpm for 30 minutes. 100 μl of the supernatant were pipetted in triplicates from each of the solution into separate empty vials of known weights. The content of these vails were left to dry in a vacuum oven overnight. The final weights of the vials were determined and the amount of each of the compounds calculated from the weight difference. Solubility in mmol/L for each compound was finally determined.
# [3] = Cyclic voltammetry of NDI at different pH values; format: physicochemical; conditions: pH below 3
# Source text: The electrochemistry of NDI was examined by CV at a range of different pH values, to gain understanding of the electron transfer reaction mechanism. FIG. 2a and FIG. 2b show cyclic voltammograms (CVs) for NDI at pH 7 and 0, respectively. […] The broadness of the first reduction at pH 7, is assumed to be due to the possibility for the first electron to add at different positions of NDI.
# A plot of the reduction potentials for NDI at different pHs is seen in FIG. 3. […] The second reduction, the triangles in the figure, has a slope of 91 mV/pH at pH below 3, indicating a one electron-1.5 proton relationship, according to the Nernst equation.
# Diffusion NMR of NDI = format: physicochemical
# Source text: Addition of three protons to each NDI molecule at pH values as high as 3 is unlikely, since the third proton would be at a weakly basic carbonyl. This is further supported by the lack of buffering at lower pHs in the titration curve in FIG. 1.
# Water solubility of NDI = format: physicochemical
# [4] = Titration of tertiary NDI in water with 1 M sodium hydroxide; format: physicochemical; conditions: 50 ml 15.6 mM tertiary NDI in water
# Source text: The quaternization is only necessary if the molecule is to be examined at higher pH values, since the tertiary amine sidechains are protonated for pH values less than about 8 (pKa≈8.1) as shown by the titration curve in FIG. 1. In FIG. 1 it can be seen that the molecule deprotonates above pH 8 and precipitates out of solution. For actual flow battery applications, i.e. redox flow battery according to the present invention, the last reaction step is thus possible to omit.
# [5] = Bulk electrolysis cycling of NDI; format: physicochemical; conditions: 25 mM in pH 6.4 phosphate buffer, twelve cycles at 15 mA, roughly a week
# Experimental: A solution of 25 mM NDI in pH 6.4 sodium phosphate buffer was cycled in a bulk electrolysis cell, where all of the material is reduced, as opposed to CV and RDE, where only a small fraction of the material is probed. A galvanostatic BE setting was used, where a constant current of 40 mA was applied. The electrolysis was intermittently paused, allowing for CVs to be collected to be able to quantify the amount of NDI that has been reduced. The peak heights from the CVs were correlated to the passed current, and it was seen that the complete capacity of NDI could be accessed using bulk electrolysis. […] For NDI, the reduction of the molecule lowers the monomer concentration in the solution, and the dimerization equilibrium is shifted in the direction of dimer separation.
# After the initial sweep, continuous cycling at a current of 15 mA was performed for twelve cycles. A CV was collected after the cycling had finished, roughly a week after starting. […] Apart from that, the NDI molecule is synthesized via a one-step reaction, at room temperature in water with an almost 100% yield. It is water soluble up to 0.7 M, and has a lower reduction potential than any of the other examined molecules, resulting in a high battery voltage in the application.
# [6] = 0.5M sodium phosphate buffer of pH 7, scan rate 10 mVs^−1
# [7] = 0.5M sodium phosphate buffer of pH 7, scan rate 20 mVs^−1
# [8] = 0.5M sodium phosphate buffer of pH 7, scan rate 50 mVs^−1
# [9] = 0.5M sodium phosphate buffer of pH 7, scan rate 100 mVs^−1
# [10] = 0.5M sodium phosphate buffer of pH 7, scan rate 250 mVs^−1
# [11] = 1M sulfuric acid, scan rate 10 mVs^−1
# [12] = 1M sulfuric acid, scan rate 20 mVs^−1
# [13] = 1M sulfuric acid, scan rate 50 mVs^−1
# [14] = 1M sulfuric acid, scan rate 100 mVs^−1
# [15] = 1M sulfuric acid, scan rate 250 mVs^−1
# [16] = acidic electrolyte (1 M sulfuric acid)
molecule,measurement,setting,value
"4,9-dibromo-2,7-bis(3-(dimethylamino)propyl)benzo[Imn][3,8]phenanthroline-1,3,6,8(2H,7H)-tetraone [Compound 1]",E^0′ vs. Ag/AgCl,[1]; [6],−0.43 V
same,peak current ratio ipa/ipc,[1]; [6],0.82 ± 0.04
same,ΔEp,[1]; [6],49.21 ± 8.49 mV
same,E^0′ vs. Ag/AgCl,[1]; [7],−0.43 V
same,peak current ratio ipa/ipc,[1]; [7],0.80 ± 0.05
same,ΔEp,[1]; [7],51.87 ± 9.16 mV
same,E^0′ vs. Ag/AgCl,[1]; [8],−0.43 V
same,peak current ratio ipa/ipc,[1]; [8],0.74 ± 0.06
same,ΔEp,[1]; [8],61.48 ±12.09 mV
same,E^0′ vs. Ag/AgCl,[1]; [9],−0.43 V
same,peak current ratio ipa/ipc,[1]; [9],0.69 ± 0.07
same,ΔEp,[1]; [9],68.59 ± 14.05 mV
same,E^0′ vs. Ag/AgCl,[1]; [10],−0.43 V
same,peak current ratio ipa/ipc,[1]; [10],0.63 ± 0.07
same,ΔEp,[1]; [10],86.49 ± 20.99 mV
same,E^0′ vs. Ag/AgCl,[1]; [11],−0.13 V
same,peak current ratio ipa/ipc,[1]; [11],0.91 ± 0.05
same,ΔEp,[1]; [11],63.67 ± 10.03 mV
same,E^0′ vs. Ag/AgCl,[1]; [12],−0.13 V
same,peak current ratio ipa/ipc,[1]; [12],0.92 ± 0.01
same,ΔEp,[1]; [12],63.31 ± 10.97 mV
same,E^0′ vs. Ag/AgCl,[1]; [13],−0.13 V
same,peak current ratio ipa/ipc,[1]; [13],0.89 ± 0.02
same,ΔEp,[1]; [13],64.97 ± 10.46 mV
same,E^0′ vs. Ag/AgCl,[1]; [14],−0.13 V
same,peak current ratio ipa/ipc,[1]; [14],0.87 ± 0.00
same,ΔEp,[1]; [14],66.31 ± 9.29 mV
same,E^0′ vs. Ag/AgCl,[1]; [15],−0.13 V
same,peak current ratio ipa/ipc,[1]; [15],0.82 ± 0.01
same,ΔEp,[1]; [15],71.25 ± 11.85 mV
same,Redox potential E^0′ vs. Ag/AgCl,[1]; [16],−0.13 V
same,Redox potential E^0′ vs. Ag/AgCl,[1]; neutral electrolyte (0.5 M sodium phosphate buffer pH 7),−0.43 V
"C[N+](C)(C)CCCN1C(=O)c2ccc3c4c(ccc(c24)C1=O)C(=O)N(CCC[N+](C)(C)C)C3=O [Compound 2, Benzo[Imn][3,8]phenanthroline-2,7-dipropanaminium, 1,3,6,8-tetrahydro-N,N,N,N′,N′,N′-hexamethyl-1,3,6,8-tetraoxo-, dichloride]",Redox potential E^0′ vs. Ag/AgCl,[1]; [16],~−0.32 V
same,Decomposition during cyclic voltammetry,[1],no evidence of decomposition
same,"Redox potential vs. Ag/AgCl, first redox process",[1]; first redox process,~−0.30 V
same,"Redox potential vs. Ag/AgCl, second redox process",[1]; second redox process,~−0.63 V
same,solubility,"[2]; Average, average of tests 1-3",678 mM
same,solubility,"[2]; Test 1, milli-Q water",653 mM
same,solubility,"[2]; Test 2, milli-Q water",689 mM
same,solubility,"[2]; Test 3, milli-Q water",691 mM
"C[N+](C)(C)CCCN1C(=O)c2cc(Br)c3c4c(cc(Br)c(c24)C1=O)C(=O)N(CCC[N+](C)(C)C)C3=O [Compound 3, 3,3′-(4,9-dibromo-1,3,6,8-tetraoxo-1,3,6,8-tetrahydrobenzo[Imn][3,8]phenanthroline-2,7-diyl)bis(N,N,N-trimethylpropan-1-aminium) chloride]","Potential vs. Ag/AgCl, first pair of peaks","[1]; acidic electrolyte, first redox process",~−0.13 V
same,"Potential vs. Ag/AgCl, second pair of peaks","[1]; acidic electrolyte, second redox process",~−0.38 V
same,Decomposition during cyclic voltammetry,[1],no evidence of decomposition
same,"Redox potential vs. Ag/AgCl, first redox process",[1]; first redox process,−0.05 V
same,"Redox potential vs. Ag/AgCl, second redox process",[1]; second redox process,−0.65 V
same,solubility,"[2]; Average, average of tests 1-3",149 mM
same,solubility,"[2]; Test 1, milli-Q water",142 mM
same,solubility,"[2]; Test 2, milli-Q water",151 mM
same,solubility,"[2]; Test 3, milli-Q water",154 mM
"CN(C)CCCN1C(=O)c2ccc3c4c(ccc(c24)C1=O)C(=O)N(CCCN(C)C)C3=O [NDI, 2,7-bis(3-(dimethylamino)propyl)benzo[Imn][3,8]phenanthroline-1,3,6,8(2H,7H)-tetraone]",Slope of second reduction potential versus pH,[3],91 mV/pH
same,Diffusion coefficient,Diffusion NMR of NDI; acid solution,2.57 ×10^−6 cm^2 s^−1
same,Diffusion coefficient,Diffusion NMR of NDI; neutral solution,2.34 ×10^−6 cm^2 s^−1
same,Water solubility,Water solubility of NDI,up to 0.7 M
same,pKa of tertiary amine sidechains,[4],≈ 8.1
same,Material degradation after cycling (CV before vs after),[5],no or little material degradation
